Earlier results in patent US5550110A, “Endothelin Antagonists II” (Warner-Lambert Company, priority 1994, dated 1996).
Ends that are not written are not given here. Peptide text beside a SMILES is read from it.

How the values were obtained:
[1] = system: ET-1 induced bronchoconstriction and tracheal smooth muscle contraction; details: allergic sheep; cited from earlier work
[2] = system: endotoxic shock; details: mouse endotoxic shock; cited from earlier work
[3] = system: ET-1 induced pressor response; details: conscious rats; cited from earlier work
[4] = system: blood pressure; details: intravenous infusion, stroke prone spontaneous hypertensive rats; cited from earlier work
[5] = system: acute hypoxia induced pulmonary hypertension; details: in vivo; cited from earlier work
[6] = system: ET-1 induced vasoconstriction; details: i.v.; cited from earlier work
[7] = system: renal vascular resistance; details: i.v.; cited from earlier work
[8] = system: acute CsA toxicity; details: rat model; cited from earlier work
[9] = system: ischemic acute renal failure; details: i.v., cited from earlier work
[10] = system: renal vasoconstriction after renal ischemia; details: anesthetized rats; cited from earlier work
[11] = system: cerebral vasoconstriction after subarachnoid hemorrhage; details: rats; cited from earlier work
[12] = system: blood pressure; details: orally administered; cited from earlier work
[13] = system: vasoconstriction after subarachnoid hemorrhage; details: cited from earlier work
[14] = system: ET receptor; details: cited from earlier work
[15] = system: glomerular injury; details: intraperitoneal, rats; cited from earlier work
[16] = system: vasoconstriction of the basilar artery; details: intracisternal, canine subarachnoid hemorrhage model; cited from earlier work
[17] = system: ET-1 induced arrhythmia; details: rats; cited from earlier work

CC(C)C[C@@H]1NC(=O)[C@@H](C(C)C)NC(=O)[C@@H]2CCCN2C(=O)[C@@H](CC(=O)O)NC(=O)[C@@H](Cc2c[nH]c3ccccc23)NC1=O [BQ-123] (HELM PEPTIDE1{L.[dW].[dD].P.[dV]}$PEPTIDE1,PEPTIDE1,1:R1-5:R2$$$V2.0)
ET-1 induced bronchoconstriction and tracheal smooth muscle contraction [1]: block ET-1 induced bronchoconstriction and tracheal smooth muscle contraction
survival rate [2]: significantly increased the survival rate
ET-1 induced pressor response [3]: effective in antagonizing the ET-1 induced pressor response
blood pressure [4]: decreased blood pressure significantly
prevention of acute hypoxia induced pulmonary hypertension [5]: effective in the prevention of acute hypoxia induced pulmonary hypertension
ET-1 induced vasoconstriction in rabbit retinal arteries [6]: blocked
ET-1 induced renal vascular resistance in rats [7]: blocked
acute CsA toxicity [8]: suppressed
mitochondrial [Ca2+] accumulation ([9]; early phase of ischemic acute renal failure in rats): prevents the mitochondrial [Ca^2+ ] accumulation
post-ischemic degeneration of proximal tubular cells ([9]; rats): protects proximal tubular cells from post-ischemic degeneration

COc1cccc(Oc2c(NS(=O)(=O)c3ccc(C(C)(C)C)cc3)ncnc2OCCO)c1 [Ro 46-2005]
renal vasoconstriction after renal ischemia [10]: protective effect
cerebral vasoconstriction after subarachnoid hemorrhage [11]: dramatically reduced cerebral vasoconstriction
antihypertensive effect [12]: marked antihypertensive effect with a reasonably long duration

COc1ccccc1Oc1c(NS(=O)(=O)c2ccc(C(C)(C)C)cc2)nc(-c2ncccn2)nc1OCCO [Ro 47-0203]
blood brain barrier passage ([13]; inferred from the rabbit subarachnoid hemorrhage model): crosses the blood brain barrier
reversal of vasoconstriction ([13]; rabbit subarachnoid hemorrhage model): effective in a rabbit subarachnoid hemorrhage model in reversing vasoconstriction

ET[1-20]: ET-1 lacking the C-terminal amino acid Trp-21 (CSCSSLMDKECVYFCHLDII; ends and bridges not checked; cysteine pairing not given here; UniProt P05305 53-72, looked up, fragment)
functional activity relative to ET-1 [14]: approximately 1000 fold less

FR 139317
permeability to proteins, glomerular injury, renal function [15]: reduced abnormal permeability to proteins and limited glomerular injury and prevented renal function deterioration
vasoconstriction of the basilar artery [16]: significantly reduced the vasoconstriction of the basilar artery
ET-1 induced arrhythmia [17]: suppressed
